Measured values published in patent US8431715B2, “Thiazole compound (as PPARδ) ligand and pharmaceutical, cosmetic and health food comprised thereof” (Seoul National University Industry Foundation, priority 2007, dated 2013).

How the values were obtained:
PPARα = biological target: T1, PPARα (Homo sapiens, UniProt Q07869); test: Transfection assay (luciferase reporter) in CV-1 cells, PPARα; type: cell-based; conditions: 24 hours treatment
T1 construct: Full length PPARs plasmid DNA, reporter DNA confirming PPARs activity owing to its luciferase activity; expressed in transfected cells; host or cells: CV-1 cells
T1 sequence (Q07869 1-468): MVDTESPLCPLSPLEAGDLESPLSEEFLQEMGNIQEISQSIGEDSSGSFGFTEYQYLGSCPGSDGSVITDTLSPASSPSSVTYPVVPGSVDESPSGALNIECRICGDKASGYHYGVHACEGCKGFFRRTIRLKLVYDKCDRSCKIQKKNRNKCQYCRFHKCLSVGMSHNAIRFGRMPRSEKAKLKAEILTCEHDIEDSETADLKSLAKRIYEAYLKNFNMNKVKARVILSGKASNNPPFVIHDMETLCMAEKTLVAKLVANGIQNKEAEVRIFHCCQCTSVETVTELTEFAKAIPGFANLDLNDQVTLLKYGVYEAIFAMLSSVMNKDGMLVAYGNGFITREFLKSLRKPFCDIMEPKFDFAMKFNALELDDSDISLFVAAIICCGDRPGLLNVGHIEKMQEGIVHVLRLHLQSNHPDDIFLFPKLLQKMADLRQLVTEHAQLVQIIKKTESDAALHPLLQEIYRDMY
Protocol: (§1) The PPARδ activities of the R-form compound represented by formula 1 of the present invention and the S-form compound represented by formula 2 were measured by transfection assay. In addition, the selectivity to PPAR subtypes, PPARα and PPARγ, was examined. Cytotoxicity was tested by MTT assay and in vivo activity and toxicity was investigated by animal experiment using mice.
CV-1 cells were used in this assay. The cells were inoculated in a 96-well plate containing DMEM supplemented with 10% FBS, DBS (delipidated) and 1% penicillin/streptomycin and cultured in a 37 °C, 5% CO2 incubator. The experiment was performed according to the steps of inoculation, transfection, sample treatment and confirmation. Particularly, CV-1 cells were inoculated in a 96 well-plate (5000 cells/well), followed by transfection 24 hours later. Full length PPARs plasmid DNA, reporter DNA confirming PPARs activity owing to its luciferase activity, β-galactosidase DNA providing information on transfection efficiency, and transfection reagent were used for the transfection. The compounds of formula 1 and formula 2 were dissolved in dimethylsulfoxide (DMSO), which were treated to the cells via media at different concentrations. […] Luciferase activity and β-galactosidaseactivity were measured with Luminometer and a microplate reader. […] A graph was made with those values and EC50 was calculated.

mice = test: Morris water maze test, treatment in pregnancy and lactation; type: in vivo; conditions: 10 mg/kg oral to pregnant mice, control 24.2 sec
Protocol: An animal test was performed to investigate the therapeutic effect of the compound of the present invention on dementia and Parkinson's disease based on the memory improving effect thereof. To confirm the effect of the compound of the present invention in the period of brain development, the compound was orally administered to pregnant mice at the concentration of 10 mg/kg in the periods of pregnancy and lactation. Morris water maze test was performed to detect any changes of the brain functions of the treatment group and the control group.

ICR mice = test: Acute toxicity test; type: in vivo; conditions: oral, up to 2000 mg/kg, 14 days
Protocol: Acute toxicity and reproductive toxicity tests were performed using mice to evaluate the toxicity of the compound of the present invention. The compound of formula 1 was orally administered to ICR mice at 6 weeks at the dosage of 50 mg/kg, 300 mg/kg and 2000 mg/kg, followed by observation on toxicity for 14 days. […] The result of reproductive toxicity test using C57BL/6 mice was also consistent with the above, which is no toxicity caused by the compound of formula 1 was observed. After oral-administration of the compound to the pregnant female mice, weight gain and growth speed of fetus were investigated.

CV-1 cells = test: MTT assay, cytotoxicity; type: cell-based; conditions: 24 hours, even at the concentration of 100,000 times the EC50 value
Protocol: MTT assay was performed to test cytotoxicity of the compounds of the present invention. MTT is a yellow substance soluble in water, but when it is introduced into a living cell, it turns into a purple insoluble crystal by dehydrogenase in mitochondria. Cytotoxicity can be confirmed by measuring OD550 after dissolving MTT in dimethylsulfoxide. The experiment was performed as follows.
CV-1 cells were inoculated in a 96-well plate (5000 cells/well). The cells were cultured in a 37[…] 5% CO2 incubator for 24 hours, and treated with the compounds of formula 1 and formula 2 at different concentrations. Then, the cells were cultured for 24 hours again, to which MTT reagent was added. After culturing for 15 minutes, the generated purple crystals were dissolved in dimethylsulfoxide. Optical density was measured with a microplate reader to confirm cytotoxicity.

ApoE−/− mouse = test: Arteriosclerosis inhibiting effect, Sudan IV plaque staining; type: in vivo; conditions: 2 mg/kg/day oral, high fat high cholesterol feeds, 28 days
Protocol: In vivo animal test using ApoE−/− mouse, which is an animal model for arteriosclerosis, was performed to confirm the arteriosclerosis inhibiting effect of the compound of the present invention. The animals were orally administered with 2 mg/kg/day of the compound of formula 1 of the present invention while feeding with high fat, high cholesterol feeds (20% fat, 1.25% cholesterol; AIN-93G diet). 28 days later, plaque staining was performed over the whole artery using Sudan IV to investigate the arteriosclerosis inhibiting effect of the compound by comparing the results between experimental and control groups. As a result, arteriosclerosis was 30% inhibited in ApoE−/− mouse treated with the compound of formula 1 of the present invention, compared with the control.

PPARδ = biological target: T2, PPARδ (Homo sapiens, UniProt Q03181); test: Transfection assay (luciferase reporter) in CV-1 cells, PPARδ; type: cell-based; design: Full length PPARs plasmid DNA, reporter DNA confirming PPARs activity owing to its luciferase activity; expressed in transfected cells; host or cells: CV-1 cells
T2 sequence (Q03181 1-441): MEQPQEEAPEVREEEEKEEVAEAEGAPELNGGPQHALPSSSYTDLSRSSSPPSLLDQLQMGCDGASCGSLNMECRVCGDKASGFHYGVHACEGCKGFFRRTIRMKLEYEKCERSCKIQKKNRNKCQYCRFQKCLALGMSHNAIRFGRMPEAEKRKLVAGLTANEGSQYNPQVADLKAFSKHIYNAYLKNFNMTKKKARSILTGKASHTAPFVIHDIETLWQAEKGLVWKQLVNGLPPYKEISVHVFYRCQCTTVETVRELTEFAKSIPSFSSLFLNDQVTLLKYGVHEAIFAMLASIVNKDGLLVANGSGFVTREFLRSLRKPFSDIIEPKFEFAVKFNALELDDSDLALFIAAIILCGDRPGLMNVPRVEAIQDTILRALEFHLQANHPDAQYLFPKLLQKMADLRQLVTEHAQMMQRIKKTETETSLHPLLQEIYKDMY
Protocol: as §1
CV-1 cells were used in this assay. The cells were inoculated in a 96-well plate containing DMEM supplemented with 10% FBS, DBS (delipidated) and 1% penicillin/streptomycin and cultured in a 37 °C, 5% CO2 incubator. The experiment was performed according to the steps of inoculation, transfection, sample treatment and confirmation. Particularly, CV-1 cells were inoculated in a 96 well-plate (5000 cells/well), followed by transfection 24 hours later. Full length PPARs plasmid DNA, reporter DNA confirming PPARs activity owing to its luciferase activity, β-galactosidase DNA providing information on transfection efficiency, and transfection reagent were used for the transfection. The compounds of formula 1 and formula 2 were dissolved in dimethylsulfoxide (DMSO), which were treated to the cells via media at different concentrations. After culturing the cells in the incubator for 24 hours, the cells were lysed by using lysis buffer. Luciferase activity and β-galactosidaseactivity were measured with Luminometer and a microplate reader. The obtained values of luciferase were modified by the values of β-galactosidase. A graph was made with those values and EC50 was calculated.

Compound: Cc1cc(S[C@H](Cc2ccccc2)c2sc(-c3ccc(C(F)(F)F)cc3)nc2C)ccc1OCC(=O)O (racemic) [formula 1]
- EC50 PPARα (PPARα): ia
- average time spent to find the platform (mice): 6.8 s
- changes on weight and feed taking (ICR mice): no significant changes
- cytotoxicity (CV-1 cells): not to have cytotoxicity
- arteriosclerosis inhibition compared with the control (ApoE−/− mouse): 30%
- EC50 (PPARδ; CV-1 cells, 24 hours treatment): 0.6 nM
- activity of R-isomer compared with S-isomer (formula 2) (PPARδ; PPARδ): 10 times
- selectivity to PPARα and PPARγ (PPARδ; PPARδ versus PPARα and PPARγ): 100,000 times
